Data as given in patent publication US10758534B2 (Vertex Pharmaceuticals Incorporated, priority 2014, dated 2020).

The molecules below were run against T1, F508del (Homo sapiens, UniProt P13569, DEL508-508) (assay: Protocol 1: membrane potential optical assay (FLIPR III, voltage sensing dye), identification of potentiator compounds). Settings: Table 3, compounds of Table 1.
T1 construct: expressed in transfected cells
Type: cell-based
How it was run: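 NIH 3T3 fibroblasts stably expressing F508del were cultured at 27° C for 24 hrs for temperature correction, then treated with compounds or DMSO and loaded with a voltage-sensing redistribution dye. Forskolin added with a Cl⁻ gradient activated the channel; membrane-potential fluorescence on FLIPR III reported increased gating.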

T1 sequence (P13569 with tags, fused parts or gaps DEL508-508): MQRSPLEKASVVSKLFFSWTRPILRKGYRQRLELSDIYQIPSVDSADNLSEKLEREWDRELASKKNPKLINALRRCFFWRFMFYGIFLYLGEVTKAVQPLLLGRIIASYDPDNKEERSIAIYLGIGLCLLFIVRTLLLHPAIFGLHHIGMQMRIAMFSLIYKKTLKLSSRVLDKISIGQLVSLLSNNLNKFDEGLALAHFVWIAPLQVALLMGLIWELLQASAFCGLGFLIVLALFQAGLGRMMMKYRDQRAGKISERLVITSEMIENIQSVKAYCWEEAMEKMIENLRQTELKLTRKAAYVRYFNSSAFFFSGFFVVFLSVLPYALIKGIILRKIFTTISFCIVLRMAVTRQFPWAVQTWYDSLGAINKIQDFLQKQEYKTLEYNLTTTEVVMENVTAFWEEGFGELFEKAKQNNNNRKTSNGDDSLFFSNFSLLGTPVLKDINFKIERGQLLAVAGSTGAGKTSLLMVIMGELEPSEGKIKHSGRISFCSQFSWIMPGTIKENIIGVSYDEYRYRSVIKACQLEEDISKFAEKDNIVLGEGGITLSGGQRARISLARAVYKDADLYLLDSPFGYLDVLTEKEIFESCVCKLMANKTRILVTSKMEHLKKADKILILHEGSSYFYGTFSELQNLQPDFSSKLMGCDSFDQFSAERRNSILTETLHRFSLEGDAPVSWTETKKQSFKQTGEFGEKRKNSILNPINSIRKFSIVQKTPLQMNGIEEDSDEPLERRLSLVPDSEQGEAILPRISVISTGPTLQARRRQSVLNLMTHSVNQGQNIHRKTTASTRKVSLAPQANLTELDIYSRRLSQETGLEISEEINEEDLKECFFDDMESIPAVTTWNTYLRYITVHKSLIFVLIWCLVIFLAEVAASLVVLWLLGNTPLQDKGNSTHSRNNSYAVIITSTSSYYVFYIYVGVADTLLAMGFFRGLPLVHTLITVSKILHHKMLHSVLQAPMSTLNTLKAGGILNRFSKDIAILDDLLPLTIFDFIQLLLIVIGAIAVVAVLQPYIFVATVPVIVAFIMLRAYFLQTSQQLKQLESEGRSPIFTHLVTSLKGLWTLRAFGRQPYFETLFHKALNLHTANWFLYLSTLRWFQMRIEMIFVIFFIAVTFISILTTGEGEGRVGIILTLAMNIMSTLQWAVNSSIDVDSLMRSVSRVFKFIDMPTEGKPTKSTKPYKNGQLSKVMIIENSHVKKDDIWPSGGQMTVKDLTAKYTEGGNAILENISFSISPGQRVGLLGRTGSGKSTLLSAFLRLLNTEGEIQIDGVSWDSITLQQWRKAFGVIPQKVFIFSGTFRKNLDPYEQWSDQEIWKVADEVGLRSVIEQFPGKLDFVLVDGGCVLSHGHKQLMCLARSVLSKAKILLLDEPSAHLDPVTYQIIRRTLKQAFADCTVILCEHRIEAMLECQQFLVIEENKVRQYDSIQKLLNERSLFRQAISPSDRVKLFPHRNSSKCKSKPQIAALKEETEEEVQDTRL

Row | SMILES | EC30
1 | Cc1cc(C)c(Oc2nc(C3=CCC(C(F)(F)F)CC3)ccc2C(=O)NS(=O)(=O)c2cccc(N)n2)c(C)c1 (stereo not shown) [Compound 1402, N-[(6-amino-2-pyridyl)sulfonyl]-6-[4-(trifluoromethyl)cyclohexen-1-yl]-2-(2,4,6-trimethylphenoxy)pyridine-3-carboxamide] | +++ (“+++” means <3 uM)
2 | Cc1cc2c(cc1-c1cnc(N3CC(C)CC3(C)C)c(C(=O)NS(=O)(=O)c3cccc(N)n3)c1)C(C)(C)CCC2(C)C (stereo not shown) [Compound 1759, N-[(6-amino-2-pyridyl)sulfonyl]-5-(1,1,4,4,7-pentamethyltetralin-6-yl)-2-(2,2,4-trimethylpyrrolidin-1-yl)pyridine-3-carboxamide] | +++ (“+++” means <3 uM)
3 | CC1CN(c2nc(C(C)(C)C)c(-c3ccccc3)cc2C(=O)NS(=O)(=O)c2cccc(N)n2)C(C)(C)C1 (stereo not shown) [Compound 1364, N-[(6-amino-2-pyridyl)sulfonyl]-6-tert-butyl-5-phenyl-2-(2,2,4-trimethylpyrrolidin-1-yl)pyridine-3-carboxamide] | +++ (“+++” means <3 uM)
4 | CCC(Oc1nc(-c2cc(F)cc(OCC(C)C)c2)ccc1C(=O)NS(=O)(=O)c1cccc(N)n1)C1CC1(C)C (stereo not shown) [Compound 1639, N-[(6-amino-2-pyridyl)sulfonyl]-2-[1-(2,2-dimethylcyclopropyl)propoxy]-6-(3-fluoro-5-isobutoxy-phenyl)pyridine-3-carboxamide] | +++ (“+++” means <3 uM)
5 | CC1CN(c2ncccc2C(=O)NS(=O)(=O)c2cccc(Nc3cc(F)ccc3Cl)n2)C(C)(C)C1 (stereo not shown) [Compound 1941, N—[[6-(2-chloro-5-fluoro-anilino)-2-pyridyl]sulfonyl]-2-(2,2,4-trimethylpyrrolidin-1-yl)pyridine-3-carboxamide] | +++ (“+++” means <3 uM)
6 | CC(C)COc1cc(F)cc(-c2ccc(C(=O)NS(=O)(=O)c3cccc(N)n3)c(OCCCc3ccccn3)n2)c1 [Compound 1693, N-[(6-amino-2-pyridyl)sulfonyl]-6-(3-fluoro-5-isobutoxy-phenyl)-2-[3-(2-pyridyl)propoxy]pyridine-3-carboxamide] | +++ (“+++” means <3 uM)
7 | [2H]C1([2H])[C@@H](C)CC(C)(C)N1c1nc(-c2cc(F)cc(OCC(C)C)c2)ccc1C(=O)NS(=O)(=O)c1cccc(N)n1 [Compound 1400, N-[(6-amino-2-pyridyl)sulfonyl]-2-[(3S)-2,2-dideuterio-3,5,5-trimethyl-pyrrolidin-1-yl]-6-(3-fluoro-5-isobutoxy-phenyl)pyridine-3-carboxamide] | +++ (“+++” means <3 uM)
8 | Cc1cc(C)c(Oc2ncc(C3(C)CC3)cc2C(=O)NS(=O)(=O)c2cccc(N)n2)c(C)c1 [Compound 854, N-[(6-amino-2-pyridyl)sulfonyl]-5-(1-methylcyclopropyl)-2-(2,4,6-trimethylphenoxy)pyridine-3-carboxamide] | ++ (“++” means between 3 uM and 10 uM)
9 | CC(C)COc1cc(F)cc(-c2ccc(C(=O)NS(=O)(=O)c3cccnc3N)c(N3[C@H](C)CC[C@@H]3C)n2)c1 [Compound 1159, N-[(2-amino-3-pyridyl)sulfonyl]-2-[(2S,5R)-2,5-dimethylpyrrolidin-1-yl]-6-(3-fluoro-5-isobutoxy-phenyl)pyridine-3-carboxamide] | +++ (“+++” means <3 uM)
10 | CC(C)Cc1ccn(-c2ccc(C(=O)NS(=O)(=O)c3cccc(N)n3)c(N3C[C@@H](C)CC3(C)C)n2)n1 [Compound 1411, N-[(6-amino-2-pyridyl)sulfonyl]-6-(3-isobutylpyrazol-1-yl)-2-[(4S)-2,2,4-trimethylpyrrolidin-1-yl]pyridine-3-carboxamide] | +++ (“+++” means <3 uM)
11 | CCOc1cc(F)ccc1-c1ccc(C(=O)NS(=O)(=O)c2ccc[nH]c2=O)c(N2C[C@@H](C)CC2(C)C)n1 [Compound 1867, 6-(2-ethoxy-4-fluoro-phenyl)-N-[(2-oxo-1H-pyridin-3-yl)sulfonyl]-2-[(4S)-2,2,4-trimethylpyrrolidin-1-yl]pyridine-3-carboxamide] | +++ (“+++” means <3 uM)
12 | CC1CN(c2ncccc2C(=O)NS(=O)(=O)c2cccc(Nc3cccc4cccnc34)n2)C(C)(C)C1 (stereo not shown) [Compound 1826, N—[[6-(8-quinolylamino)-2-pyridyl]sulfonyl]-2-(2,2,4-trimethylpyrrolidin-1-yl)pyridine-3-carboxamide] | +++ (“+++” means <3 uM)
13 | C[C@@H]1CN(c2nc(-c3ccc(OC(F)(F)F)cc3)ccc2C(=O)NS(=O)(=O)c2cccc(N)n2)C(C)(C)C1 [Compound 1785, N-[(6-amino-2-pyridyl)sulfonyl]-6-[4-(trifluoromethoxy)phenyl]-2-[(4S)-2,2,4-trimethylpyrrolidin-1-yl]pyridine-3-carboxamide] | +++ (“+++” means <3 uM)
14 | COc1ncc(-c2ccc(C(=O)NS(=O)(=O)c3cc[nH]n3)c(Oc3ccc(C)cc3C)n2)cc1C [Compound 892, 2-(2,4-dimethylphenoxy)-6-(6-methoxy-5-methyl-3-pyridyl)-N-(1H-pyrazol-3-ylsulfonyl)pyridine-3-carboxamide] | ++ (“++” means between 3 uM and 10 uM)
15 | CCOc1cccc2c1CN(Cc1c(C)cc(C)cc1C)C2(C)C(=O)NS(=O)(=O)c1cccc(OC)c1 (stereo not shown) [Compound 1470, 4-ethoxy-N-(3-methoxyphenyl)sulfonyl-1-methyl-2-[(2,4,6-trimethylphenyl)methyl]isoindoline-1-carboxamide] | +++ (“+++” means <3 uM)
16 | CC1CN(c2ncccc2C(=O)NS(=O)(=O)c2cccc(Oc3cccc4c3CCCC4)n2)C(C)(C)C1 (stereo not shown) [Compound 1955, N-[(6-tetralin-5-yloxy-2-pyridyl)sulfonyl]-2-(2,2,4-trimethylpyrrolidin-1-yl)pyridine-3-carboxamide] | +++ (“+++” means <3 uM)
17 | CC(C)COc1cc(F)cc(-c2ccc(C(=O)NS(=O)(=O)c3cccc(N)n3)c(N3CC4(CC4)CC3(C)C)n2)c1 [Compound 1746, N-[(6-amino-2-pyridyl)sulfonyl]-2-(5,5-dimethyl-6-azaspiro[2.4]heptan-6-yl)-6-(3-fluoro-5-isobutoxy-phenyl)pyridine-3-carboxamide] | +++ (“+++” means <3 uM)
18 | Cc1ccc(-c2ccc(C(=O)NS(=O)(=O)c3cccc(N)n3)c(Oc3c(C)cc(C)cc3C)n2)cc1 [Compound 1035, N-[(6-amino-2-pyridyl)sulfonyl]-6-(p-tolyl)-2-(2,4,6-trimethylphenoxy)pyridine-3-carboxamide] | +++ (“+++” means <3 uM)
19 | CC(C)COc1cc(F)cc(-c2ccc(C(=O)NS(=O)(=O)c3cccc(N)n3)c(OCC3CCCO3)n2)c1 (stereo not shown) [Compound 1661, N-[(6-amino-2-pyridyl)sulfonyl]-6-(3-fluoro-5-isobutoxy-phenyl)-2-(tetrahydrofuran-2-ylmethoxy)pyridine-3-carboxamide] | +++ (“+++” means <3 uM)
20 | CC(C)COc1cc(F)cc(-c2ccc(C(=O)NS(=O)(=O)c3cccc(N)n3)c(OCCC3CC3)n2)c1 [Compound 1685, N-[(6-amino-2-pyridyl)sulfonyl]-2-(2-cyclopropylethoxy)-6-(3-fluoro-5-isobutoxy-phenyl)pyridine-3-carboxamide] | +++ (“+++” means <3 uM)
21 | CC(C)COc1cc(F)cc(-c2ccc(C(=O)NS(=O)(=O)c3cccc4[nH]ccc34)c(N3CCC(C)(C)CC3)n2)c1 [Compound 1323, 2-(4,4-dimethyl-1-piperidyl)-6-(3-fluoro-5-isobutoxy-phenyl)-N-(1H-indol-4-ylsulfonyl)pyridine-3-carboxamide] | + (“+” means greater than 10 uM)
22 | CC(C)COc1cc(F)cc(-c2ccc(C(=O)NS(=O)(=O)c3cccc(N)n3)c(N3CC(C)OCC3(C)C)n2)c1 (stereo not shown) [Compound 1548, N-[(6-amino-2-pyridyl)sulfonyl]-6-(3-fluoro-5-isobutoxy-phenyl)-2-(2,5,5-trimethylmorpholin-4-yl)pyridine-3-carboxamide] | +++ (“+++” means <3 uM)
23 | CC(C)C(C)c1ccc(C(=O)NS(=O)(=O)c2cccc(N)n2)c(N2C[C@@H](C)CC2(C)C)n1 (stereo partly drawn) [Compound 1489, N-[(6-amino-2-pyridyl)sulfonyl]-6-(1,2-dimethylpropyl)-2-[(4S)-2,2,4-trimethylpyrrolidin-1-yl]pyridine-3-carboxamide] | +++ (“+++” means <3 uM)
24 | CC(C)COc1cncc(-c2ccc(C(=O)NS(=O)(=O)c3cccc(N)n3)c(N3C[C@@H](C)CC3(C)C)n2)n1 [Compound 1523, N-[(6-amino-2-pyridyl)sulfonyl]-6-(6-isobutoxypyrazin-2-yl)-2-[(4S)-2,2,4-trimethylpyrrolidin-1-yl]pyridine-3-carboxamide] | +++ (“+++” means <3 uM)
25 | CCOCCOCCOc1cc(C)cc(-c2ccc(C(=O)NS(=O)(=O)c3cccc(N)n3)c(N3C[C@@H](C)CC3(C)C)n2)n1 [Compound 1696, N-[(6-amino-2-pyridyl)sulfonyl]-6-[6-[2-(2-ethoxyethoxy)ethoxy]-4-methyl-2-pyridyl]-2-[(4S)-2,2,4-trimethylpyrrolidin-1-yl]pyridine-3-carboxamide] | +++ (“+++” means <3 uM)
26 | Cc1ccc(F)c(-c2nc(C(C)(C)C)ccc2C(=O)NS(=O)(=O)c2cccc(N)c2)c1 [Compound 1350, N-(3-aminophenyl)sulfonyl-6-tert-butyl-2-(2-fluoro-5-methyl-phenyl)pyridine-3-carboxamide] | + (“+” means greater than 10 uM)
27 | CC(C)COc1cc(F)cc(-c2ccc(C(=O)NS(=O)(=O)c3cccc(N)n3)c(N3CC(=O)CC3(C)C)n2)c1 [Compound 1073, N-[(6-amino-2-pyridyl)sulfonyl]-2-(2,2-dimethyl-4-oxo-pyrrolidin-1-yl)-6-(3-fluoro-5-isobutoxy-phenyl)pyridine-3-carboxamide] | + (“+” means greater than 10 uM)
28 | CCOc1cccc2c1CN(Cc1c(C)cc(C)cc1C)C2(C)C(=O)NS(=O)(=O)c1cccc(N)c1 (stereo not shown) [Compound 1454, N-(3-aminophenyl)sulfonyl-4-ethoxy-1-methyl-2-[(2,4,6-trimethylphenyl)methyl]isoindoline-1-carboxamide] | +++ (“+++” means <3 uM)
